Holding throughout (type): cell-based, human
One assay concerns cancer cell lines. The assay is described as follows: Cell viability analysis (WST-1) on cancer cell lines. Conditions: drug 10 μM, 72 hours, WST-1; Table 3. (Formazan colour is commonly taken as a measure of viable cells.)
The subject of assay [1] is TSGH-8301 (Urinary Bladder Carcinoma). Nature of the assay: Cell viability analysis, bladder cancer TSGH-8301. Conditions: Homo sapiens, 72 h.
The subject of assay [2] is MKN-45 (Gastric Adenocarcinoma). Nature of the assay: Cell viability analysis, gastric cancer MKN-45. Conditions: Homo sapiens, MKN-45, 72 h.
For assay [3], the system named is LoVo (Colorectal Adenocarcinoma). The assay is described as follows: Cell viability analysis, colon cancer LoVo. Conditions: Homo sapiens, LoVo, 72 h, read-out: cell viability (survival rate), LoVo, drug 10 μM, 72 hours, WST-1, OD450 nm.
In assay [4] the test system is A549 (Lung Adenocarcinoma). Nature of the assay: Cell viability analysis, lung cancer A549. Conditions: Homo sapiens, A549, 72 h.
Assay [5] deals with A375 (Amelanotic Melanoma). The assay is described as follows: Cell viability analysis, skin cancer A375. The following applies: Homo sapiens, A-375, 72 h.
The test system of assay [6] is MCF7 (Mammary Gland, Adenocarcinoma). Nature of the assay: Cell viability analysis, breast cancer MCF7. Conditions: Homo sapiens, MCF7, 72 h.
Assay [7] relates to HI650 (Lung Adenocarcinoma). The assay is described as follows: Cell viability analysis, lung cancer HI650. The following applies: Homo sapiens, NCI-H1650, 72 h.
Assay [8] relates to PC3 (p53−) (Prostate Adenocarcinoma). The assay is described as follows: Cell viability analysis, prostate cancer PC3. Conditions: Homo sapiens, 72 h.
Assay [9] has as its system HL-60 (Acute Promyelocytic Leukemia). The assay is described as follows: Cell viability analysis, leukemia HL-60. Conditions: Homo sapiens, HL-60, 72 h.
Assay [10] concerns AGS (Gastric Adenocarcinoma). Nature of the assay: Cell viability analysis, gastric cancer AGS. Conditions: Homo sapiens, 72 h.
The test system of assay [11] is HepG2 (Hepatocellular Carcinoma). The assay is described as follows: Cell viability analysis, hepatic cancer HepG2. The following applies: Homo sapiens, HepG2, 72 h.
Assay [12] concerns HeLa (Cervix Adenocarcinoma). Nature of the assay: Cell viability analysis, cervical cancer HeLa. The following applies: Homo sapiens, HeLa, 72 h.
[13] abbreviates: read-out: cell viability (survival rate), TSGH, drug 10 μM, 72 hours, WST-1, OD450 nm.
Where [14] appears, read: read-out: cell viability (survival rate), MKN-45, drug 10 μM, 72 hours, WST-1, OD450 nm.
Setting [15] is: read-out: cell viability (survival rate), A549, drug 10 μM, 72 hours, WST-1, OD450 nm.
Where [16] appears, read: read-out: cell viability (survival rate), A375, drug 10 μM, 72 hours, WST-1, OD450 nm.
The mark [17] stands for this setting: read-out: cell viability (survival rate), MCF7, drug 10 μM, 72 hours, WST-1, OD450 nm.
[18] abbreviates: read-out: cell viability (survival rate), H1650, drug 10 μM, 72 hours, WST-1, OD450 nm.
Where [19] appears, read: read-out: cell viability (survival rate), PC3, drug 10 μM, 72 hours, WST-1, OD450 nm.
[20] abbreviates: read-out: cell viability (survival rate), HL-60, drug 10 μM, 72 hours, WST-1, OD450 nm.
Where [21] appears, read: read-out: cell viability (survival rate), AGS, drug 10 μM, 72 hours, WST-1, OD450 nm.
Where [22] appears, read: read-out: cell viability (survival rate), HepG2, drug 10 μM, 72 hours, WST-1, OD450 nm.
The mark [23] stands for this setting: read-out: cell viability (survival rate), HeLa, drug 10 μM, 72 hours, WST-1, OD450 nm.
The mark [24] stands for this setting: drug 10 μM, 72 hours, WST-1, OD450 nm, read-out: cell viability (survival rate), TSGH.
[25] abbreviates: drug 10 μM, 72 hours, WST-1, OD450 nm, read-out: cell viability (survival rate), MKN-45.
[26] abbreviates: drug 10 μM, 72 hours, WST-1, OD450 nm, read-out: cell viability (survival rate), A549.
[27] abbreviates: drug 10 μM, 72 hours, WST-1, OD450 nm, read-out: cell viability (survival rate), A375.
Setting [28] is: drug 10 μM, 72 hours, WST-1, OD450 nm, read-out: cell viability (survival rate), MCF7.
Where [29] appears, read: drug 10 μM, 72 hours, WST-1, OD450 nm, read-out: cell viability (survival rate), H1650.
Setting [30] is: drug 10 μM, 72 hours, WST-1, OD450 nm, read-out: cell viability (survival rate), PC3.
Setting [31] is: drug 10 μM, 72 hours, WST-1, OD450 nm, read-out: cell viability (survival rate), HL-60.
[32] abbreviates: drug 10 μM, 72 hours, WST-1, OD450 nm, read-out: cell viability (survival rate), AGS.
The mark [33] stands for this setting: drug 10 μM, 72 hours, WST-1, OD450 nm, read-out: cell viability (survival rate), HepG2.
[34] abbreviates: drug 10 μM, 72 hours, WST-1, OD450 nm, read-out: cell viability (survival rate), HeLa.

Experimental findings from patent publication US10105357B2, “Indication of antibiotic drugs for preparation of cancer inhibition pharmaceutical composition” (LAUNX BIOMEDICAL CO., LTD., priority 2014, dated 2018) are described below.

Molecules are shown by their SMILES. Where two headings read alike, the source gives them in different places.

The term viability denotes a read-out of living cells in per cent, often relative to untreated cells. As to `Cc1onc(-c2c(Cl)cccc2Cl)c1C(=O)N[C@@H]1C(=O)N2[C@@H]1SC(C)(C)[C@@H]2C(=O)O` [Dicloxacillin Sodium], the “inhibition effect on different cancer cell lines” value in the assay with cancer cell lines is listed as “significant inhibition effect”. In addition, the viability at 10 µM in assay [1] (setting [13]) turned out to be 84.3%; in assay [2] (setting [14]), 66.4%; in assay [3] it was 92.4%; in assay [4] (setting [15]) it was 61.8%; in assay [5] (setting [16]), 79%; in [6] (setting [17]), 45.3%. The viability at 10 µM was determined as 68.4% in assay [7] (setting [18]); 71.1% in assay [8] (setting [19]); 72.7% in assay [9] (setting [20]); 147% in assay [10] (setting [21]); 102% in assay [11] (setting [22]); 60.1% in assay [12] (setting [23]).

`CCCCCCCCCCCCCCCCCCCCCCO` [Docosanol (Abreva), Docosanol]: the “inhibition effect on different cancer cell lines” value in the assay on cancer cell lines was “significant inhibition effect”. Also, the viability at 10 µM in assay [1] (setting [24]) turned out to be 54.8%; in assay [2] (setting [25]), 52.4%; in [3], 89.4%; in assay [4] (setting [26]), 44%; in assay [5] (setting [27]) it was 84.6%; in [6] (setting [28]), 39.1%. For the same compound, the viability at 10 µM in assay [7] (setting [29]) stood at 69.3%; in assay [8] (setting [30]), 70.2%; in assay [9] (setting [31]) it was 116%; in assay [10] (setting [32]), 40.6%; in [11] (setting [33]), 83.6%; in assay [12] (setting [34]), 76.9%.

As for `CCCCCCCCCCCC[N+](C)(C)CCOc1ccccc1` [Domiphen Bromide], the “inhibition effect on different cancer cell lines” value with cancer cell lines is “significant inhibition effect”. For the same compound, the viability at 10 µM came out at 37.3% in [1] (setting [24]); 44.4% in assay [2] (setting [25]); 48.7% in assay [3]; 28.7% in [4] (setting [26]); 36.3% in assay [5] (setting [27]); 31.3% in assay [6] (setting [28]). The viability at 10 µM was 46.5% in assay [7] (setting [29]); 38.9% in [8] (setting [30]); 30% in assay [9] (setting [31]); 32.5% in assay [10] (setting [32]); 62.1% in assay [11] (setting [33]); 38% in assay [12] (setting [34]).

With `Nc1nc(=O)n([C@@H]2CS[C@H](CO)O2)cc1F` [Emtricitabine (Emtriva), Emtricitabine], in the assay on cancer cell lines, the “inhibition effect on different cancer cell lines” value was “significant inhibition effect”. The viability at 10 µM in assay [1] (setting [13]) is 85.3%; in assay [2] (setting [14]), 62.8%; in assay [3], 82.6%; in [4] (setting [15]) it was 86.9%; in assay [5] (setting [16]), 84%; in [6] (setting [17]), 74%. Moreover, the viability at 10 µM in assay [7] (setting [18]) is 61%; in assay [8] (setting [19]), 77.1%; in assay [9] (setting [20]), 119%; in assay [10] (setting [21]), 48%; in assay [11] (setting [22]), 110%; in assay [12] (setting [23]), 79.6%.

In the case of `CCn1cc(C(=O)O)c(=O)c2cc(F)c(N3CCNCC3)nc21` [Enoxacin (Penetrex), Enoxacin], the “inhibition effect on different cancer cell lines” value in the assay on cancer cell lines is “significant inhibition effect”. Further, the viability at 10 µM in assay [1] (setting [24]) was 90.4%; in assay [2] (setting [25]) it was 54.3%; in assay [3], 83.8%; in [4] (setting [26]) it was 45.8%; in [5] (setting [27]) it was 66.9%; in assay [6] (setting [28]), 44.5%. Further, the viability at 10 µM was 92.3% in assay [7] (setting [29]); 112% in [8] (setting [30]); 108% in assay [9] (setting [31]); 111% in assay [10] (setting [32]); 88.1% in assay [11] (setting [33]); 68.5% in assay [12] (setting [34]).

As for `CCN1CCN(c2cc3c(cc2F)c(=O)c(C(=O)O)cn3C2CC2)CC1` [Enrofloxacin], the “inhibition effect on different cancer cell lines” value in the assay with cancer cell lines is on record as “significant inhibition effect”. Moreover, the viability at 10 µM came to 77.9% in assay [1] (setting [13]); 37.4% in [2] (setting [14]); 84.8% in assay [3]; 67.5% in [4] (setting [15]); 65.2% in assay [5] (setting [16]); 66.6% in assay [6] (setting [17]). Besides, the viability at 10 µM in [7] (setting [18]) stood at 44.5%; in assay [8] (setting [19]), 48.6%; in assay [9] (setting [20]), 86.6%; in assay [10] (setting [21]) it was 94.5%; in [11] (setting [22]), 77.2%; in [12] (setting [23]) it was 67%.

On to `CCOc1ccc2nc3cc(N)ccc3c(N)c2c1` [Ethacridine lactate monohydrate], for which, in the assay with cancer cell lines, the “inhibition effect on different cancer cell lines” value is “significant inhibition effect”. For the same compound, the viability at 10 µM in [1] (setting [24]) turned out to be 46.8%; in assay [2] (setting [25]), 49.7%; in assay [3], 50.1%; in [4] (setting [26]), 75.1%; in assay [5] (setting [27]), 40.1%; in assay [6] (setting [28]), 68.7%. Further, the viability at 10 µM was determined as 52.5% in assay [7] (setting [29]); 64.6% in [8] (setting [30]); 44.1% in assay [9] (setting [31]); 38.2% in assay [10] (setting [32]); 65.5% in [11] (setting [33]); 39.9% in [12] (setting [34]).

In the case of `CCc1cc(C(N)=S)ccn1` [Ethionamide], in the assay with cancer cell lines, the “inhibition effect on different cancer cell lines” value is listed as “significant inhibition effect”. The viability at 10 µM worked out at 53.2% in [1] (setting [13]); 45.4% in assay [2] (setting [14]); 86.5% in assay [3]; 42.4% in assay [4] (setting [15]); 76.6% in [5] (setting [16]); 36.4% in [6] (setting [17]). For the same compound, the viability at 10 µM in assay [7] (setting [18]) was determined as 78.3%; in assay [8] (setting [19]) it was 85.3%; in assay [9] (setting [20]), 102%; in [10] (setting [21]), 53.7%; in assay [11] (setting [22]), 97.7%; in assay [12] (setting [23]), 44.8%.

In the case of `COC(=O)Nc1nc2ccc(Sc3ccccc3)cc2[nH]1` [Fenbendazole (Panacur), Fenbendazole], the “inhibition effect on different cancer cell lines” value with cancer cell lines is “significant inhibition effect”. Besides, the viability at 10 µM was 27.2% in assay [1] (setting [13]); 40.3% in assay [2] (setting [14]); 52.9% in assay [3]; 40.9% in assay [4] (setting [15]); 40.6% in [5] (setting [16]); 55.8% in assay [6] (setting [17]). The viability at 10 µM in [7] (setting [18]) stood at 60.2%; in [8] (setting [19]), 42%; in assay [9] (setting [20]) it was 66.6%; in assay [10] (setting [21]), 29.9%; in assay [11] (setting [22]), 76.1%; in assay [12] (setting [23]), 38.6%.
